# According to patent US6362321B1, “Taxol resistance associated gene” (The General Hospital Corporation, priority 1998, dated 2002):
# Experiments:
# [1] = test system: SKOV-3 TRAG-3 transfectants; assay: MTT assay of taxol sensitivity in TRAG-3 stable transfectants of SKOV-3; format: cell-based, Human; settings: SKOV-3 lipotransfected with pCI/TRAG-3, G418 selected; initial results
# Method: (§1) All drugs were obtained from commercial sources. In vitro cytotoxicity was measured using a tetrazolium-based semi-automated calorimetric assay (i.e., MTT assay), as described (Carmichael et al., 1987, Cancer Res. 47:936-942). Briefly, 2×10^3 cells per well were cultured for 6 days with taxol or with taxol plus 30 μM verapamil. 20 μl of 5 mg/ml MTT solution was added to each well and incubated for 4 hours. A590 nm was measured after MTT formazan was solubilized with HCl-isopropanol solution. The absorbance values were normalized by assigning the value of the parent line in media to 1.0 and the value of the no-cell blank to 0. Experiments were performed in duplicate.
# pCI-neo Mammalian Expression Vector (Promega) was used to overexpress TRAG-3 cDNA in SKOV-3 cells. Constructs carrying TRAG-3 were introduced into SKOV-3 cells by using the PERFECT™ Transfection Kit (Invitrogen) according to the manufacturer's protocol. The individual G418 (300 μg/ml) resistant clones were isolated and examined by Northern analysis for stable expression of TRAG-3. MTT assays were performed on the transfectants to evaluate the effect of TRAG-3 on taxol sensitivity.
# To elucidate the contribution of TRAG-3 gene product(s) to taxol resistance, taxol-sensitive SKOV-3 cells were lipotransfected with the pCI/TRAG-3 expression vector. After G418 selection, several TRAG-3 stable transfectant subclones were obtained. […]
# SKOV-3TR cells = assay: MTT cytotoxicity assay, taxol-resistant SKOV-3TR versus parental SKOV-3; format: cell-based, Human
# Method: as §1
# A taxol-resistant SKOV-3 subline, SKOV-3TR, was established by exposing SKOV-3 cells to taxol at stepwise increases in concentration (from 0.00001 μM to 0.3 μM taxol). […] The growth rate of […], was similar to that of parental SKOV-3. Cell lines were analyzed for their degree of taxol resistance by MTT cytotoxicity assays. […] This drug resistance profile is consistent with a MDR1 phenotype.
compound,measurement,setting,value
CC(=O)O[C@H]1C(=O)[C@@]2(C)[C@H]([C@H](OC(=O)c3ccccc3)[C@]3(O)C[C@H](OC(=O)[C@H](O)[C@@H](NC(=O)c4ccccc4)c4ccccc4)C(C)=C1C3(C)C)[C@]1(OC(C)=O)CO[C@@H]1C[C@@H]2O [taxol],taxol resistance of TRAG-3 transfectants compared to the parent line,[1],no significant increase in taxol resistance
same,degree of taxol resistance of SKOV-3TR relative to SKOV-3,"SKOV-3TR cells; MTT cytotoxicity, SKOV-3TR vs parental SKOV-3, 6 days culture",approximately 100 fold
COc1ccc(CCN(C)CCCC(C#N)(c2ccc(OC)c(OC)c2)C(C)C)cc1OC (stereo not shown) [verapamil],effect of verapamil on SKOV-3TR's resistance to taxol,"SKOV-3TR cells; taxol plus 30 μM verapamil, MTT assay, FIG. 1",reversed
CC[C@]1(O)C[C@H]2CN(CCc3c([nH]c4ccccc34)[C@@](C(=O)OC)(c3cc4c(cc3OC)N(C=O)[C@H]3[C@@](O)(C(=O)OC)[C@H](OC(C)=O)[C@]5(CC)C=CCN6CC[C@]43[C@@H]65)C2)C1 [vincristine],resistance of SKOV-3TR to other drugs (cross-resistance),SKOV-3TR cells; SKOV-3TR selected with taxol up to 0.3 μM,cross-resistance
